According to patent publication US6821959B1, “Antibiotic-natural polysaccharide polymer adducts” (Istituto Biochimico Pavese Pharma S.p.A, priority 1999, dated 2004):
Values after ≈ are worked out from the molar mass of the structure shown.

How the values were obtained:
[1] = system: field Staphylococcus aureus (strain B); assay: Inhibition halos, diffusion method, strain B; format: cell-based
Description: (§1) The inhibition halos were obtained through the diffusion method (Farmacopea Ufftclale Italiana, IX ed., page 315), using a culture medium “Mueller-Hinton Medium Difco, with a low thymine and thymidine content, in sterile Petri plates (9 cm in diameter), with Tryptic Soy Broth (Difco).
(§2) For the sensitivity test, both paper filtering disks, imbibed of a fixed quantity of antibiotic and the relevant adduct disks, having the same total dose, but a lower molar ratio of the active principle were prepared.
(§3) To produce a bacterial growth, a strain of Staphylococcus aureus ATCC 6538 P (strain A) and two strains of field Staphylococcus aureus (strains B and C) were used.
(§4) The culture broths were prepared placing a loop of bacterial coating of an agar culture (12 h) in a test tube containing sterile Tryptic Soy Broth (5 ml), successively incubated at 37° C. for 4 hours.
(§5) When necessary, the suspensions have been diluted with sterile water in order to obtain a turbidity similar to the reference standard (0.5 McFarland). The Mueller-Hinton culture medium (150 ml) was sterilized at 121° C. for 15 minutes; a part of it was positioned on sterile Petri plates (9 cm in diameter), was let to solidify, while another part was cooled at approx. 45° C., was inoculated with the bacterial suspensions as above prepared (15 ml) and poured onto the solidified agar surface (10 ml per plate).
(§6) The sown plates were let dry (open) under a laminar flow hood for 15 minutes, then the disks were placed on their surface (four each plate), i.e. the adduct and antibiotic according to the two desired concentrations. The prepared plates (five each tests) were overturned and incubated at 37° C. for 16 hours. After this interval, the inhibition halos were produced. The results are shown in Table 1, where F.U. indicates the dosage recommended by Farmacopea Ufficiale Italiana, IX ed., vol. 1

[2] = system: field Staphylococcus aureus (strain C); assay: Minimum inhibiting concentration (MIC) in vitro, dilutions in liquid medium, strain C; format: cell-based; details: Mueller-Hinton broth pH=7.4, 37° C. 18-24 hours; for MIC: Staphylococcus aureus
Method: (§7) To produce a bacterial growth, a strain of Staphylococcus aureus ATCC 6538 P (strain A) and two strains of field Staphylococcus aureus (strains B and C) were used. […] A drop of broth (dilution 1:10) was added to all test tubes, which were incubated at 37° C. for 18-24 hours. Then, the test tube with the highest dilution free of any turbidity was considered as the one containing the minimum inhibiting concentration (MIC).

[3] = system: field Staphylococcus aureus (strain B); assay: Minimum inhibiting concentration (MIC) in vitro, dilutions in liquid medium, strain B; format: cell-based; details: Mueller-Hinton broth pH=7.4, 37° C. 18-24 hours; for MIC: Staphylococcus aureus
Method: as §7

[4] = system: field Staphylococcus aureus (strain C); assay: Inhibition halos, diffusion method, strain C; format: cell-based
Description: as §1, §2, §3, §4, §5, §6

[5] = system: Staphylococcus aureus ATCC 6538 P (strain A); assay: Minimum inhibiting concentration (MIC) in vitro, dilutions in liquid medium, strain A; format: cell-based; details: Mueller-Hinton broth pH=7.4, 37° C. 18-24 hours; for MIC: Staphylococcus aureus, ATCC6538
Method: as §7

[6] = system: Staphylococcus aureus ATCC 6538 P (strain A); assay: Inhibition halos, diffusion method, strain A; format: cell-based
Description: as §1, §2, §3, §4, §5, §6

Staphylococcus aureus = assay: In vivo activity in mice infected with Staphylococcus aureus (ulcerative dermatitis), bacteriologic test; design: species or system albino mice; details: for Bacteriologic test after 5 days of therapy, negative / Bacteriologic test after 5 days of therapy, positive: number of subjects; for % of recovery: subjects with post-infective clinical symptoms, after 5 days of therapy
Method: The antibiotics and the respective adducts were used in solution with distilled water for injectables or with purified water for oral use. Common albino mice (average weight: 28 g), previously infected with Staphylococcus aureus (which is not resistant to the examined antibiotics), that had developed ulcerative dermatitis, with localized abscesses and popodermatitis […] were treated with the prepared solutions every 24 hours for 5 days. After this treatment, a bacteriologic checking through isolation was performed, using pads on the animal skin and inoculating the sample drawn from the […] on the plate.

S. aureus Smith BT13 = assay: Murine model of Staphylococcus aureus subcutaneous abscess; format: in vivo, swiss mice; details: for Size scored: abscess size scored 0 to 3 per mouse, group sum; for Total abscesses in 30 mice / Total score (size scored) in 30 mice: cephalosporin, sum of 25, 50, 100 mg/kg groups; for Cured infected mice of 30: parent cephalosporin, 25, 50, 100 mg/kg groups together
Method: 200 Male swiss mice were housed in temperature and humidity controlled animal rooms. The body weight on the day of infection was 25 g (SD 1.2, no 10). Culture media Brain Heart Infusion Broth (Difco) (BHI) and Brain Heart Infusion Agar (Merck) (BHIA) were prepared according to the manufacturer instructions and autoclaved for 15 mins at 121° C. S. aureus Smith BT13 was used at infecting organism. It was stored frozen at −80° C. […] For each test article, a stock solution was prepared by dissolving the drug with 5 ml of water for injectables (5 mg/ml drug concentration for cephalosporins and 3 mg/ml for the adducts). Dilutions 1:2 and 1:4 were prepared using the same vehicles. All solutions were prepared immediately before use. […] At 6 h after inoculation, groups of 10 mice were dosed intraperitoneally with 0.5 ml either of one of the antibiotic solutions, while an untreated control group of 10 mice was injected intraperitoneally with 0.5 ml sterile water. […] On the third day after infection, all mice were sacrificed and autopsied. Presence and size of abscesses were recorded. […] The activity of all compounds was compared by the non parametric Mann-Whitney U test. Statistical significance was for p<0.05.

Solubility in water = format: physicochemical; details: of water, pH=4.8
[7] = disk dose 4 μg (adduct: same total dose), 37° C. 16 hours
[8] = disk dose 8 μg (adduct: same total dose)
[9] = infected subjects without post-infective clinical symptoms (NO)
[10] = subjects with post-infective clinical symptoms (YES), treated every 24 hours for 5 days
[11] = disk dose 0.64 μg (F.U.) (adduct: same total dose)
[12] = disk dose 1.56 μg (F.U.) (adduct: same total dose)
[13] = disk dose 6 μg (adduct: same total dose)

Molecule | Halos on strain B [1, 7] | MIC [2] | MIC [3] | Halos on strain C [4, 7] | MIC [5] | Halos on strain A [6, 7] | Bacteriologic test after 5 days of therapy, negative (Staphylococcus aureus; [9]) | Bacteriologic test after 5 days of therapy, positive (Staphylococcus aureus; [9]) | Bacteriologic test after 5 days of therapy, negative (Staphylococcus aureus; [10]) | Bacteriologic test after 5 days of therapy, positive (Staphylococcus aureus; [10]) | % of recovery (Staphylococcus aureus) | Size scored (S. aureus Smith BT13; cephalosporin 25 mg/kg/dose) | Size scored (S. aureus Smith BT13; cephalosporin 50 mg/kg/dose) | Size scored (S. aureus Smith BT13; cephalosporin 100 mg/kg/dose) | Total abscesses in 30 mice (S. aureus Smith BT13) | Total score (size scored) in 30 mice (S. aureus Smith BT13) | Cured infected mice of 30 (S. aureus Smith BT13) | Halos on strain B [1, 11] | Halos on strain B [1, 12] | Halos on strain C [4, 11] | also measured
CC1(C)S[C@@H]2[C@H](NC(=O)[C@H](N)c3ccc(O)cc3)C(=O)N2[C@H]1C(=O)O [Amoxycillin] | 13.0 mm | 0.08 µg/mL (≈ 0.219 µM) | 0.2 µg/mL (≈ 0.547 µM) | 9.7 mm | 0.1 µg/mL (≈ 0.274 µM) | 12.0 mm | 0 | 0 | 13 | 0 | 100% |  |  |  |  |  |  |  |  |  | Halos on strain B [1, 8]: 14.0 mm; Halos on strain C [4, 8]: 10.0 mm; Halos on strain A [6, 8]: 13.2 mm
Cc1nnc(SCC2=C(C(=O)O)N3C(=O)[C@@H](NC(=O)Cn4cnnn4)[C@H]3SC2)s1 [Cefazolin] |  | 0.54 µg/mL (≈ 1.19 µM) | 0.64 µg/mL (≈ 1.41 µM) |  | 0.5 µg/mL (≈ 1.1 µM) |  |  |  | 15 | 0 | 100% | 17 | 4 | 0 | 8 absc | 21 | 22 | 8.5 mm | 10.1 mm | 10.1 mm | Halos on strain C [4, 12]: 10.9 mm; Halos on strain A [6, 11]: 11.0 mm; Halos on strain A [6, 12]: 12.2 mm
CO/N=C(\C(=O)N[C@@H]1C(=O)N2C(C(=O)O)=C(COC(C)=O)CS[C@H]12)c1csc(N)n1 [Cefotaxime] |  |  |  |  |  |  |  |  |  |  |  | 11 | 3 | 0 | 6 absc | 14 | 24/30 |  |  |  | 
CC1=C(C(=O)O)N2C(=O)[C@@H](NC(=O)[C@H](N)C3=CCC=CC3)[C@H]2SC1 [Cefradin] |  | 4.3 µg/mL (≈ 12.3 µM) | 4.8 µg/mL (≈ 13.7 µM) |  | 4 µg/mL (≈ 11.4 µM) |  |  |  | 15 | 0 | 100% |  |  |  |  |  |  | 7.0 mm | 9.0 mm | 9.7 mm | solubility (Solubility in water): 4000 µg/mL (≈ 11400 µM); Halos on strain C [4, 12]: 10.0 mm; Halos on strain A [6, 11]: 10.0 mm; Halos on strain A [6, 12]: 12.1 mm
CO/N=C(\C(=O)N[C@@H]1C(=O)N2C(C(=O)O)=C(CSc3nc(=O)c(=O)[nH]n3C)CS[C@H]12)c1csc(N)n1 [Ceftriaxone] |  |  |  |  |  |  |  |  |  |  |  | 17 | 14 | 10 | 19 absc | 41 | 11/30 |  |  |  | 
Gentamicin | 11.8 mm |  |  | 12.8 mm |  | 12.1 mm | 0 | 0 | 13 | 0 | 100% |  |  |  |  |  |  |  |  |  | Halos on strain B [1, 13]: 12.0 mm; MIC on strain C [2]: 0.139 µg/mL; MIC on strain B [3]: 0.15 µg/mL; Halos on strain C [4, 13]: 13.9 mm; MIC on strain A [5]: 0.125 µg/mL; Halos on strain A [6, 13]: 13.1 mm
